In ChEMBL document CHEMBL1124736, “Novel quinuclidine-based ligands for the muscarinic cholinergic receptor” (J Med Chem, 1990) one finds K app and Log ratio data, which are given here for 25 compounds.

Assay [1] concerns the target T1, Muscarinic acetylcholine receptor (Rattus norvegicus) (UniProt P08482+P08483+P08485+P08911+P10980).
Description: In vitro for its ability to displace [3H]NMS from muscarinic acetylcholine receptor in rat cortical homogenates
Assay [2] addresses T1, Muscarinic acetylcholine receptor (Rattus norvegicus). This is another data set of the same source.
Description: In vitro displacement of [3H]OXO-M from muscarinic acetylcholine receptor in rat cortical homogenates
Assay [3] can be described thus: Log of the ratio of Kapp([3H]-NMS)/Kapp([3H]-OXO-M) was determined.
For assay [4], the target named is T1, Muscarinic acetylcholine receptor (Rattus norvegicus). The assay can be described thus: Compound was tested in vitro for its ability to displace [3H]OXO-M from Muscarinic acetylcholine receptor in rat cortical homogenates.

On to `c1ccc(Cc2noc(C3CN4CCC3CC4)n2)cc1` (configuration not stated), for which the K app came to 0.07 µM in assay [1] and 0.021 µM in assay [2].
For `C[N+]12CCC(CC1)C(c1nc(N)no1)C2` (configuration not stated), in that order: 6.6 µM and 0.079 µM.
For `CCc1noc(C2CN3CCC2CC3)n1` (configuration not stated), in that order: 0.096 µM and 0.0056 µM.
In the case of `COc1noc(C2CN3CCC2CC3)n1` (configuration not stated), the K app in assay [1] stood at 0.52 µM; in assay [2], 0.014 µM.
Turning to `Cc1noc(C2=CCCN(C)C2)n1`, the K app in assay [1] came to 1.8 µM; in assay [2] it was 0.0046 µM.
In the case of `CN(C)c1noc(C2CN3CCC2CC3)n1` (configuration not stated), the values for the K app in assay [1] and in assay [2] were 0.2 µM and 0.021 µM, respectively.
For `N#Cc1noc(C2CN3CCC2CC3)n1` (configuration not stated), in that order: 2.6 µM and 0.043 µM.
In the case of `Clc1noc(C2CN3CCC2CC3)n1` (configuration not stated), the Log ratio in assay [3] amounted to 2.6. Besides, the K app was determined as 0.19 µM in assay [1] and 0.00048 µM in assay [2].
Turning to `CC(=O)Nc1noc(C2CN3CCC2CC3)n1` (configuration not stated), the results for the K app in assay [1] and in assay [2] were 23 µM and 0.12 µM, respectively.
For `Cc1nc(C2CN3CCC2CC3)no1` (configuration not stated), the Log ratio in assay [3] amounted to 1.73. Besides, the values for the K app in assay [1] and in assay [2] were 2.9 µM and 0.054 µM, respectively.
Turning to `Cc1noc(C2CN3CCC2CC3)n1` (configuration not stated), in assay [3], the Log ratio stood at 2.69. For the same compound, the K app in assay [4] was 0.0009 µM.
In the case of `Cc1noc(C2=CN3CCC2CC3)n1`, the figures for the K app in assay [1] and in assay [2] were 15 µM and 0.4 µM, respectively.
For `CNc1noc(C2CN3CCC2CC3)n1` (configuration not stated), in that order: 2 µM and 0.053 µM.
For `NC(=O)c1noc(C2CN3CCC2CC3)n1` (configuration not stated), in that order: 39 µM and 1.7 µM.
In the case of `Cc1cc(C2CN3CCC2CC3)on1` (configuration not stated), in assay [3], the Log ratio was 1.59. The K app in assay [1] was 1.4 µM; in assay [2], 0.036 µM.
With `OC(c1ccccc1)(c1ccccc1)c1noc(C2CN3CCC2CC3)n1` (configuration not stated), the results for the K app in assay [1] and in assay [2] were 0.00012 µM and 6.7e-05 µM, respectively.
For `c1coc(C2CN3CCC2CC3)n1` (configuration not stated), in that order: 6.7 µM and 0.038 µM.
Take `Cc1coc(C2CN3CCC2CC3)n1` (configuration not stated): the Log ratio in assay [3] stood at 1.72. In addition, the K app in assay [1] amounted to 1.4 µM; in assay [2], 0.027 µM.
For `Cc1nnc(C2CN3CCC2CC3)o1` (configuration not stated), in that order: 2.11, 7.5 µM and 0.06 µM.
In the case of `Cc1cnc(C2CN3CCC2CC3)o1` (configuration not stated), the K app was determined as 0.73 µM in assay [1] and 0.04 µM in assay [2].
For the compound `Brc1noc(C2CN3CCC2CC3)n1` (configuration not stated), the K app in assay [1] stood at 0.19 µM; in assay [2], 0.0011 µM.
On to `Cc1coc(C2CN3CCC2CC3)c1` (configuration not stated), for which the Log ratio in assay [3] came out at 1.18. Also, the K app in assay [1] turned out to be 1.4 µM; in assay [2], 0.057 µM.
In the case of `Nc1noc(C2CN3CCC2CC3)n1` (configuration not stated), the Log ratio in assay [3] amounted to 3.08. The K app in assay [2] was determined as 0.0005 µM.
Turning to `Cc1ccc(C2CN3CCC2CC3)o1` (configuration not stated), in assay [3], the Log ratio was 1.28. Besides, the K app in assay [1] worked out at 0.25 µM; in assay [2] it was 0.013 µM.
In the case of `COC(=O)C1CN2CCC1CC2` (configuration not stated), the K app was found to be 8.6 µM in assay [1] and 0.023 µM in assay [2].
